Results published in US7888527B2 (University of Virginia Patent Foundation, priority 2004, dated 2011).
Entries after “also recorded” stand apart in the source; their conditions may differ.

How the values were obtained:
S1P2 receptor = target: T1, S1P2 receptor (Homo sapiens, UniProt O95136); assay: [γ-35S]GTP binding assay, HEK293T membranes; type: biochemical
T1 construct: expressed in transfected cells; host or cells: HEK293T, transient transfection; membranes
Excerpt: (§1) The appropriate receptor plasmid DNA (encoding human S1P1, human S1P2, human S1P3, human S1P4, human S1P5, human LPA1, human LPA2 or human LPA3 receptors) is mixed with equal amounts of expression plasmids encoding human Gi2α (for S1P3, a mutated (C352F) rat Gi2α is used), cow β1, and cow γ2 proteins, and these DNAs are used to transfect monolayers of HEK293T cells (where ‘T’ indicates expression of the SV-40 virus large T antigen) using the calcium phosphate precipitate method (7). After about 60 hours, cells are harvested, membranes prepared, aliquoted, and stored at −70° C. until use (8).
(§2) The [γ-^35S]GTP binding assay is performed as described previously (8). Membranes containing 1-5 μg of protein are incubated in 0.1 ml of binding buffer (in mM: HEPES/50, NaCl/100, MgCl2/10, pH 7.5) containing 5 μg of saponin, 10 μM GDP, 0.1 nM [γ-^35S]GTP (1200 Ci/mmol), and indicated lipid(s) for 30 min at 30° C. and collected using a Brandel Cell Harvester (Gaithersburg, Md.). Samples are then analyzed for bound radionuclide.
(§3) Statistical Analysis. The EC50 and IC50 values for all dose response curves were determined by nonlinear regression analysis of all data using the Graphpad Prism© program. The error associated with the data collected is reported as the standard error of the mean (S.E.M).

[1] = test system: LPA1-3 EDG-family receptors; assay: Activity at LPA receptors; type: biochemical, human; settings: concentrations up to 30 μM
Excerpt: as §1, §2

human S1P1 receptor [2] = target: T2, human S1P1 receptor (Homo sapiens, UniProt P21453); assay: Cell migration assay, T24 cells transfected stably with human S1P1 receptor; type: cell-based; set-up: expressed in transfected cells
Protocol: […] monolayers are co-transfected with the human S1P1, S1P2, S1P3 receptor encoding DNAs and the pIRESpuro2 plasmid DNA (Clontech, San Jose, Calif.,) using either Lipofectamine 2000 (Invitrogen, Carlsbad, Calif.) or FuGENE 6 (Roche Applied Science, Indianapolis, Ind.). Clonal populations expressing the puromycin acetyltransferase gene are selected by addition of puromycin (Sigma-Aldrich, St. Louis, Mo.) to the culture media. T24 cells are grown in monolayers at 37° C. in a 5% CO2/95% air atmosphere in growth media consisting of: 95% DMEM/F-12 medium and 10% charcoal/dextran stripped FBS.
Cell migration assays are performed using modified Boyden chambers (tissue culture-treated, 24-mm diameter, 10-μm thickness, 8-μm pores, Transwell®; Costar Corp., Cambridge, Mass.) containing polycarbonate membranes that are coated on the underside with 0.1% gelatin. The underside of the polycarbonate membranes is rinsed once with migration media (DMEM/F12 without Phenol Red and 0.1% fatty acid free BSA) and then immersed in the lower chamber containing two milliliters of migration media. T24 cells transfected stably with human S1P1 receptor DNA were grown in DMEM/F12 media containing charcoal/dextran stripped FBS and 10 μg/ml puromycin to 100% confluence in 150×2.5 mm tissue culture plates and serum starved at least 12 hours. Serum-starved cells were removed from culture dishes with 10× Trypsin-EDTA (Hanks' balanced salt solution containing 5 mM EDTA and 25 mM HEPES, pH 7.2, and 0.1% trypsin; Invitrogen, San Diego, Calif.), suspended in migration buffer and collected by centrifugation at 130×g for 5 minutes. The supernatant fluid was removed by aspiration and cell pellet resuspended in migration media (10^6 cells/ml). […] The non-migrating cells in the upper chamber were removed by aspiration and the migratory cells attached to the bottom surface of the membrane were isolated by incubation in 10× Trypsin-EDTA for 1 min at room temperature and gently tapping the plate to dislodge cells from the membrane. The mass of migratory cells per membrane was evaluated by combining 100 μl of cell suspension with an equal volume of CyQuant dye solution (3.0 ml of 2× lysis buffer and 15 μl CyQuant dye), and the resulting fluorescence quantified using the FlexStation™ fluorimeter (Molecular Devices, Menlo Park, Calif.). Each determination represents the average of two individual migration chambers. […] The monolayer was washed three times with phosphate buffered saline and processed immediately for the cell migration assay, as described above.

human S1P3 receptor [3] = target: T3, human S1P3 receptor (Homo sapiens, UniProt Q99500); assay: [γ-35S]GTP binding assay, HEK293T membranes (agonism and Schild antagonism); type: biochemical; set-up: expressed in transfected cells; host or cells: HEK293T, transient transfection; membranes
Excerpt: as §1, §2
Briefly, nonlinear analysis of the best-fit line generated by plotting the negative log of the EC50 values obtained from agonist dose-response curves, in the absence and presence of varying concentrations of antagonist, was plotted against the concentration of antagonist to give the Kb value.
as §3

human S1P1 receptor [4] = target: T2, human S1P1 receptor; assay: [32P]S1P binding assay, HEK293T membranes; set-up: expressed in transfected cells; host or cells: HEK293T, transient transfection; membranes; settings: read-out: pKi S1P1 (converted)
Protocol: (§4) [^32P]-S1P was prepared by incubating sphingosine and [γ-^32P]ATP with cell lysate from HEK293T cells transiently transfected with human sphingosine kinase type 2 DNA. The 200 μl reaction contained 0.025 mM sphingosine, 1 mCi [γ-^32P]ATP (7000 Ci/mmol) and kinase buffer (in mM: Mg(C2H3O2)2 (in 50 mM Tris, pH 7.5)/10, NaF/10, and semicarbizide/2). The reaction was initiated by the addition of 20 μg of cell lysate and incubated at 37° C. for at least 30 minutes. […] The organic layer was isolated and the extraction procedure repeated two additional times with the remaining aqueous fraction. The combined organic fractions were dried under a stream of nitrogen gas and resuspended in aqueous 0.1% fatty acid free BSA.
(§5) Bound ligand was separated from free ligand by rapid filtration and analyzed in a liquid scintillation counter.
as §3

human S1P3 receptor [5] = target: T3, human S1P3 receptor; assay: [32P]S1P binding assay, HEK293T membranes; set-up: expressed in transfected cells; host or cells: HEK293T, transient transfection; membranes; settings: read-out: pKi S1P3 (converted)
Protocol: as §4, §5, §3

T2 sequence (P21453 whole entry): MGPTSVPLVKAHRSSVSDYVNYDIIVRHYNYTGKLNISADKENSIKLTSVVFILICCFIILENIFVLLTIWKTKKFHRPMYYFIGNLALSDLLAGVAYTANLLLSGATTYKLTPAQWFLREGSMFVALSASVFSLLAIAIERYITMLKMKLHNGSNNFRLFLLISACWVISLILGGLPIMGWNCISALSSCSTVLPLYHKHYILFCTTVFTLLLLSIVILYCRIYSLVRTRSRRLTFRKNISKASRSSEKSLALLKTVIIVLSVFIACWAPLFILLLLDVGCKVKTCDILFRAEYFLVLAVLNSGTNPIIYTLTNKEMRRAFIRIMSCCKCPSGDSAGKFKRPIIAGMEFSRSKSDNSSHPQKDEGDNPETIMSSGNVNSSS
T3 sequence (Q99500 whole entry): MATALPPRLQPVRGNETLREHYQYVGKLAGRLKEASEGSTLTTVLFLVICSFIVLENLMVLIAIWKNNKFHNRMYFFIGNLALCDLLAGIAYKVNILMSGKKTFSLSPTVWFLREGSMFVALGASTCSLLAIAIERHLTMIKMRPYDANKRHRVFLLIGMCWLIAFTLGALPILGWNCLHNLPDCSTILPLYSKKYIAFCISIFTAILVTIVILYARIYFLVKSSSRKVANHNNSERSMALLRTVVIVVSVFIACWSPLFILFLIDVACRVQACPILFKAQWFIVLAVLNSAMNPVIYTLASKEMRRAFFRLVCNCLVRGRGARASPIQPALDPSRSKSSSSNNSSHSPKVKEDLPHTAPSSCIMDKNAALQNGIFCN
T1 sequence (O95136 whole entry): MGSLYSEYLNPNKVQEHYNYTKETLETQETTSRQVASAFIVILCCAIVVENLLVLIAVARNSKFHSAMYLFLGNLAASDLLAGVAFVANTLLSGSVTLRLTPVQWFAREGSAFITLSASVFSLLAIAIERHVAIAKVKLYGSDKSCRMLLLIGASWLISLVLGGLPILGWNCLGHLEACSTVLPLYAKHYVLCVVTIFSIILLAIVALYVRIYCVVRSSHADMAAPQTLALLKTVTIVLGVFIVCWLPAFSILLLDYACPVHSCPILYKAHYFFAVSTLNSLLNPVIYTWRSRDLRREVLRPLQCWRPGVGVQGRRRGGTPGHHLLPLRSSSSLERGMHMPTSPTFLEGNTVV

## CCCCCCCCc1cccc(NC(=O)[C@H](N)COP(=O)(O)O)c1 [VPC23019]
S1P2 receptor
  Activity at the S1P2 receptor: devoid of agonist activity
S1P2 receptor; -log molar concentration giving 50% of maximal [γ-35S]GTP binding, ± S.E.M., read-out: pEC50 S1P2 (converted)
  EC50: > 10 µM
S1P2 receptor; concentrations up to 10 micromolar
  Agonist or antagonist activity at the human S1P2 receptor: inactive as either an agonist or antagonist
[1]
  Agonist activity at LPA1-3 receptors: neither agonist activity
Human S1P1 receptor [2]; 50 nM antagonist
  Blockade of VPC22277 (10 nM)-induced migration: Blockade
Human S1P1 receptor [2]; 10 μM VPC23019 pre-incubation 30 min, washed
  Reversibility of antagonism after washout, cell migration: recovered fully
Human S1P1 receptor [2]; 10, 100 and 1000 nM antagonist
  Blockade of VPC22277 (10 nM)-induced migration: blockade
Human S1P1 receptor [2]; VPC22277 10 nM, VPC23019 1 nM-1000 nM
  Migration of T24-S1P1 cells evoked by compound alone: no migration was evoked and not
Human S1P3 receptor [3]
  Agonist activity at the S1P3 receptor: lacked agonist activity
Human S1P3 receptor [3]; VPC23019 concentrations greater than 100 nM
  Inverse agonism profile at S1P3: a profile suggesting inverse agonism
Human S1P3 receptor [3]; [γ-35S]GTP binding, S1P with increasing VPC23019, Lew and Angus regression
  Antagonism of S1P at the S1P3 receptor: dose-dependent, parallel rightward shift; also recorded: competitive antagonist
Human S1P3 receptor [3]; read-out: pKb S1P3 (converted)
  Kb: 1050 nM
Human S1P3 receptor [3]; relative to S1P Emax
  Agonist efficacy class S1P3: na (no agonist activity (<10% of S1P Emax))
Human S1P1 receptor [4]
  Ki: 13.8 nM
Human S1P3 receptor [5]
  Ki: 1170 nM
